The text below walks through data of ChEMBL document CHEMBL1201862, “PubChem BioAssay data set” (2004).

Among the test systems are LOX IMVI; NCI-H226; SN12C; SK-MEL-28; DU-145; SK-MEL-2; NCI-H460; SF-539; ACHN; U-251; OVCAR-8; CAKI-1; Malme-3M; OVCAR-5; SF-295; IGROV-1; SNB-19; MDA-N.
Holding throughout (experiment): DTP human tumour cell line panel, 48 h

Each structure is given as a SMILES string.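 Method: 48-hour compound exposure of cells in 96-well plates, five concentrations, linear interpolation of endpoints. Here, GI50 denotes the concentration required for 50% inhibition of growth.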 Activity calls are given as the source filed them. Rule as the data show it: active = GI50 up to about 1.1 µM and inactive = higher.

The term GI50 denotes the concentration that inhibits growth by half.

For `C=C1c2nc3ccccc3n2C=C(c2ccc(C)cc2)N1c1ccc(OC)cc1`, the GI50 in the experiment on LOX IMVI is 50.1 µM (inactive); in the experiment with NCI-H226 it was 27.9 µM (inactive); in the experiment on SN12C, > 94.4 µM (inactive); in the experiment on SK-MEL-28 it was > 70.5 µM (inactive); in the experiment on DU-145, > 100 µM (inactive); with SK-MEL-2, 60.7 µM (inactive). Also, the GI50 with NCI-H460 is 59.8 µM (inactive); with SF-539, > 69.5 µM (inactive); in the experiment with ACHN, 61.5 µM (inactive); in the experiment on U-251, 97.7 µM (inactive); in the experiment with OVCAR-8, 75.5 µM (inactive); with CAKI-1, 36.1 µM (inactive). The GI50 in the experiment on Malme-3M was 21.8 µM (inactive); in the experiment on OVCAR-5, > 100 µM (inactive); with SF-295 it was 33.7 µM (inactive); in the experiment on IGROV-1 it was > 83 µM (inactive); in the experiment on SNB-19, > 100 µM (inactive).
On to `Nc1ccccc1OCc1cc(=O)c(OCc2ccccc2)co1`, for which the GI50 with LOX IMVI is 27.7 µM (inactive); in the experiment with SN12C it was 0.214 µM (active); in the experiment on SK-MEL-28 it was > 100 µM (inactive); in the experiment with DU-145 it was 47.8 µM (inactive); in the experiment with NCI-H460, 7.62 µM (inactive); in the experiment with SF-539, 21.6 µM (inactive). Moreover, the GI50 was 8.99 µM (inactive) in the experiment on ACHN; 28.4 µM (inactive) with U-251; > 100 µM (inactive) in the experiment on OVCAR-8; 8.65 µM (inactive) with CAKI-1; 34.6 µM (inactive) in the experiment with Malme-3M; 37.4 µM (inactive) with OVCAR-5. The GI50 is 10.1 µM (inactive) in the experiment with SF-295, > 100 µM (inactive) in the experiment on SNB-19 and 19.1 µM (inactive) with MDA-N.
For `COc1ccc(C2=NNC(=O)c3ccccc3N2c2nc(-c3cccs3)nc3cc(OC)c(OC)cc23)cc1`, the GI50 in the experiment on NCI-H226 is 4.56 µM (inactive); in the experiment with SN12C, 3.17 µM (inactive); in the experiment on SK-MEL-28, 2.39 µM (inactive); in the experiment on DU-145, 6.49 µM (inactive); in the experiment on SK-MEL-2, 5.27 µM (inactive); with NCI-H460 it was 4.43 µM (inactive). The GI50 with SF-539 is 2.79 µM (inactive); in the experiment on ACHN, 3.07 µM (inactive); in the experiment on U-251 it was 3.3 µM (inactive); with OVCAR-8 it was 5.05 µM (inactive); with CAKI-1, 14.6 µM (inactive); in the experiment with Malme-3M, 2.6 µM (inactive). In addition, the GI50 in the experiment on OVCAR-5 is 27.7 µM (inactive); in the experiment with SF-295 it was 3.95 µM (inactive); in the experiment on IGROV-1 it was 11.1 µM (inactive); in the experiment with SNB-19, 2.79 µM (inactive).
For the molecule `Fc1cc(-c2cc(-c3ccc4c(c3)OCO4)n[nH]2)c(Cl)cc1Cl`, the GI50 in the experiment with LOX IMVI is 2.95 µM (inactive); with NCI-H226, 1.99 µM (inactive); with SN12C, 2.7 µM (inactive); in the experiment with SK-MEL-28, 5.22 µM (inactive); with DU-145, 3.34 µM (inactive); in the experiment on SK-MEL-2, 15.8 µM (inactive). Further, the GI50 is 3.61 µM (inactive) with NCI-H460; 2.31 µM (inactive) in the experiment with SF-539; 1.95 µM (inactive) in the experiment with ACHN; 1.91 µM (inactive) with U-251; 1.85 µM (inactive) with OVCAR-8; 3.18 µM (inactive) with CAKI-1. Also, the GI50 was 4.94 µM (inactive) in the experiment with Malme-3M; 3.28 µM (inactive) in the experiment with OVCAR-5; 3.05 µM (inactive) in the experiment with SF-295; 1.71 µM (inactive) with IGROV-1; 3.5 µM (inactive) in the experiment with SNB-19.
`C[N+]1(C)CCC(C#N)(c2ccccc2)CC1`: the GI50 with SK-MEL-28, in the experiment with DU-145, in the experiment on NCI-H460, with ACHN, in the experiment with U-251 and with OVCAR-8 was > 100 µM (inactive) in each case. The GI50 in the experiment with CAKI-1, in the experiment with Malme-3M, in the experiment with OVCAR-5, in the experiment on SF-295, in the experiment with IGROV-1 and in the experiment on SNB-19 was > 100 µM (inactive) throughout. For the same molecule, the GI50 in the experiment on MDA-N is > 100 µM (inactive).
On to `O=C(NCCC1CN(C(=O)OCc2ccccc2)c2ccccc21)OCc1ccccc1` (centres undefined), for which the GI50 in the experiment with SK-MEL-28 is > 100 µM (inactive); in the experiment on DU-145 it was > 100 µM (inactive); with SK-MEL-2, > 100 µM (inactive); in the experiment on NCI-H460, 96.8 µM (inactive); in the experiment with ACHN, > 100 µM (inactive); in the experiment with U-251, > 100 µM (inactive). The GI50 in the experiment on OVCAR-8, in the experiment with CAKI-1, with Malme-3M, in the experiment with OVCAR-5, with SF-295 and in the experiment with IGROV-1 was > 100 µM (inactive) throughout. Besides, the GI50 in the experiment on SNB-19 and in the experiment on MDA-N was > 100 µM (inactive) in each case.
For `CN1CCN(c2n[nH]c(=O)c3c2nnn3Cc2ccccc2)CC1`, the GI50 is > 100 µM (inactive) with LOX IMVI; 15.5 µM (inactive) with SN12C; > 100 µM (inactive) with SK-MEL-28; > 100 µM (inactive) with DU-145; > 100 µM (inactive) in the experiment on SK-MEL-2; > 100 µM (inactive) with NCI-H460. The GI50 in the experiment with ACHN, with U-251, with OVCAR-8, in the experiment on CAKI-1, with Malme-3M and with SF-295 was > 100 µM (inactive) in each case. The GI50 was > 100 µM (inactive) with SNB-19 and 0.482 µM (active) with MDA-N.
In the case of `BrCC[P+](c1ccccc1)(c1ccccc1)c1ccccc1`, the GI50 in the experiment with LOX IMVI is 4.23 µM (inactive); in the experiment with SN12C it was 1.98 µM (inactive); with SK-MEL-28, 4.89 µM (inactive); in the experiment with DU-145, 6.49 µM (inactive); in the experiment with SK-MEL-2 it was 5.26 µM (inactive); in the experiment on NCI-H460, 19.5 µM (inactive). Further, the GI50 in the experiment with SF-539 was 15 µM (inactive); in the experiment on ACHN, 3.18 µM (inactive); with U-251, 3.87 µM (inactive); with OVCAR-8, 3.1 µM (inactive); with CAKI-1, 4.37 µM (inactive); with OVCAR-5 it was 10.8 µM (inactive). The GI50 was 30.8 µM (inactive) in the experiment with SF-295, 13.3 µM (inactive) in the experiment on IGROV-1, 21.4 µM (inactive) in the experiment on SNB-19 and 2.61 µM (inactive) in the experiment with MDA-N.
Consider `O=C(/C=C/c1ccc(Cl)c(Cl)c1)CCN1CCN(CCC(=O)/C=C/c2ccc(Cl)c(Cl)c2)CC1`, for which the GI50 with LOX IMVI is 13 µM (inactive); in the experiment on NCI-H226, 19.7 µM (inactive); in the experiment on SN12C it was 26.3 µM (inactive); in the experiment on SK-MEL-28, 20.4 µM (inactive); in the experiment with DU-145, 23.8 µM (inactive); with SK-MEL-2, 26.7 µM (inactive). For the same molecule, the GI50 in the experiment with NCI-H460 is 17.2 µM (inactive); in the experiment with SF-539, 14.4 µM (inactive); in the experiment with ACHN it was 16.9 µM (inactive); in the experiment with U-251 it was 13.9 µM (inactive); in the experiment on OVCAR-8 it was 33.7 µM (inactive); with CAKI-1, 15.6 µM (inactive). Further, the GI50 in the experiment with OVCAR-5 is 19.2 µM (inactive); with SF-295, 19.7 µM (inactive); in the experiment with IGROV-1, 17 µM (inactive).
In the case of `C/C(=N/NC(=S)Nc1cccc(Cl)c1)c1cccc(/C(C)=N\NC(=S)Nc2cccc(Cl)c2)n1`, the GI50 with LOX IMVI was 1.84 µM (inactive); in the experiment on NCI-H226, 0.998 µM (active); in the experiment with SN12C, 3.48 µM (inactive); in the experiment on SK-MEL-28, > 100 µM (inactive); in the experiment on SK-MEL-2, 3.73 µM (inactive); with NCI-H460 it was 2.01 µM (inactive). Also, the GI50 in the experiment on SF-539 was 0.597 µM (active); in the experiment with ACHN, 0.813 µM (active); in the experiment on U-251 it was 3.13 µM (inactive); in the experiment with OVCAR-8 it was 0.902 µM (active); with CAKI-1, 2.86 µM (inactive); in the experiment on Malme-3M, 1.43 µM (inactive). Also, the GI50 in the experiment with OVCAR-5 is 6.43 µM (inactive); in the experiment with SF-295, 1.77 µM (inactive); with IGROV-1, 2.03 µM (inactive); in the experiment with SNB-19, 19.4 µM (inactive); in the experiment on MDA-N it was 20.2 µM (inactive).
Consider `CSc1ccc(/C=C2\N=C(c3ccccc3)N(c3nc4cc(C)c(C)cc4s3)C2=O)cc1`, for which the GI50 was 19.8 µM (inactive) in the experiment with LOX IMVI; 27 µM (inactive) in the experiment with SN12C; 49.7 µM (inactive) with SK-MEL-28; 49.7 µM (inactive) in the experiment on DU-145; 16 µM (inactive) in the experiment on SK-MEL-2; 36.3 µM (inactive) with NCI-H460. For the same molecule, the GI50 was 21.3 µM (inactive) in the experiment on SF-539; 24.9 µM (inactive) with ACHN; 19.2 µM (inactive) with U-251; 20.3 µM (inactive) in the experiment on OVCAR-8; 53 µM (inactive) with CAKI-1; 26.2 µM (inactive) in the experiment on OVCAR-5. In addition, the GI50 with SF-295 is 34.1 µM (inactive); with IGROV-1, 15.8 µM (inactive); in the experiment with SNB-19 it was 30.2 µM (inactive); in the experiment on MDA-N, 13.6 µM (inactive).
With `COc1ccc2c(c1)C(N)=C(Cc1ccncc1)C2=O`, the GI50 in the experiment with LOX IMVI was > 100 µM (inactive); in the experiment on SN12C, 63 µM (inactive); in the experiment with SK-MEL-28 it was > 100 µM (inactive); in the experiment on DU-145, > 100 µM (inactive); in the experiment with SK-MEL-2 it was > 100 µM (inactive); in the experiment with NCI-H460 it was > 100 µM (inactive). Besides, the GI50 in the experiment with SF-539, in the experiment with ACHN, in the experiment on U-251, in the experiment with OVCAR-8, with CAKI-1 and in the experiment on Malme-3M was > 100 µM (inactive) each time. Besides, the GI50 with SF-295 is > 100 µM (inactive); in the experiment with IGROV-1 it was 56.9 µM (inactive); in the experiment with SNB-19 it was > 100 µM (inactive); in the experiment with MDA-N, > 100 µM (inactive).
Consider `N[C@H]1CCC[C@@H](O)C1O` (some centres undefined), for which the GI50 in the experiment with LOX IMVI, in the experiment on SN12C, in the experiment on SK-MEL-28, with DU-145, with SK-MEL-2 and in the experiment with NCI-H460 was > 100 µM (inactive) throughout. Further, the GI50 with ACHN, with U-251, with OVCAR-8, with CAKI-1, with OVCAR-5 and in the experiment on SF-295 was > 100 µM (inactive) in each case. Further, the GI50 in the experiment with MDA-N was > 100 µM (inactive).
